How the values were obtained:
[1] = test system: oxygenated mice with inflammatory lung injury; details: mouse, in vivo
[2] = test system: endotoxin-treated mice; assay: Lung injury in endotoxin-treated mice; type: in vivo
[3] = test system: A2AR gene deficient mice; assay: Selectivity control: lung inflammation in A2AR gene deficient mice; type: in vivo; details: dosing regimen used to treat WT mice (data not shown)
Description: Thus, the exogenously added selective, synthetic A2AR agonist compensated for the loss of endogenously formed adenosine in oxygenated and inflamed lungs thereby decreasing lung injury and rescuing mice from death.

[4] = test system: mice with acute inflammatory lung injury; details: mouse, in vivo
[5] = i.t. injections, endotoxin-treated mice (data not shown)

Compound | number of deaths (oxygenation-induced death) [1] | pulmonary PMN sequestration ([2]; histological examination) | lung tissue damage as assessed by lung injury score ([2]; histological examination (not shown)) | accumulation of PMN [2, 5] | lung gas exchange [2, 5] | lung injury [2, 5] | lung vascular permeability [2, 5] | production of reactive oxygen metabolites [2, 5] | lung inflammation in A2AR gene deficient mice [3] | BAL fluid protein [4] | alveolo-capillary permeability (protein recovered by broncho-alveolar lavage) [4] | arterial pO2 after return to normal atmosphere [4] | death in short-term assays [4] | deaths of mice with inflamed lungs versus 21% ambient oxygen [4] | inflammatory lung injury (exudate protein in alveolar spaces, arterial blood oxygen tension) [4] | mice that died during 15 min equilibration period in normal atmosphere [4]
CCNC(=O)[C@H]1O[C@@H](n2cnc3c(N)nc(NCCc4ccc(CCC(=O)O)cc4)nc32)[C@H](O)[C@@H]1O [CGS21680] | dramatically reduced | inhibition | fourfold decrease | significantly decreased | improved | significantly inhibited | less pronounced increases | reduced | did not affect | – | – | – | – | – | – | –
O=O [oxygen] | – | – | – | – | – | – | – | – | – | small accumulation | much more pronounced increase | decrease | did not result in death | Five times more | exacerbation | three out of seven

Reference: patent US8455437B2, “Method to predict and prevent oxygen-induced inflammatory tissue injury” (The United States of America, as Represented by the …, priority 2005, dated 2013)
